Reference: patent US12410160B2 (Gilead Sciences, Inc., priority 2021, dated 2025)
Like-named read-outs stand apart in the source and are kept apart here.

Assays:
[1] = molecular target: KHK-C expressed in NRK-52E cells (Homo sapiens (Human), UniProt P50053); experiment: KHK-C Cell-based Assay (EC50), NRK CTG, fructose-mediated ATP-depletion
human KHK-A = human KHK-A (Homo sapiens (Human), UniProt P50053); experiment: KHK Biochemical Assay (IC50), ADP-Glo, KHK-A; conditions: average of at least two separate assays
human KHK-A, sequence (P50053 other isoform, or with tags, fused parts or gaps): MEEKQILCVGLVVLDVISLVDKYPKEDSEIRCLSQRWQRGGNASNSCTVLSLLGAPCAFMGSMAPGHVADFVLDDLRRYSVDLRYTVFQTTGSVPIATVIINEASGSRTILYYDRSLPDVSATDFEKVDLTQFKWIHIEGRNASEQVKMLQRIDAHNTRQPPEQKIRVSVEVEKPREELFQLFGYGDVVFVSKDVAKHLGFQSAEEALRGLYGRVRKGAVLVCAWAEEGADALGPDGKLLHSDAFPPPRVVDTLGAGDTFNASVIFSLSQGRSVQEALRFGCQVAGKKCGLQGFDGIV
Summary of the method: (§1)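 His-tagged enzyme expressed in BL21 (DE3), Ni-NTA purified. Compounds, serially diluted 1:3 in DMSO, pre-incubated 30 min with enzyme in 50 mM Hepes pH 7.4, 140 mM KCl, 5 mM MgCl2, 0.01% Triton-X, then ATP and fructose added; 4 h at room temperature. ADP formation read by ADP-Glo luminescence.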

human KHK-C = human KHK-C (Homo sapiens (Human), UniProt P50053); experiment: KHK Biochemical Assay (IC50), ADP-Glo, KHK-C; conditions: average of at least two separate assays
human KHK-C, sequence (P50053 whole entry): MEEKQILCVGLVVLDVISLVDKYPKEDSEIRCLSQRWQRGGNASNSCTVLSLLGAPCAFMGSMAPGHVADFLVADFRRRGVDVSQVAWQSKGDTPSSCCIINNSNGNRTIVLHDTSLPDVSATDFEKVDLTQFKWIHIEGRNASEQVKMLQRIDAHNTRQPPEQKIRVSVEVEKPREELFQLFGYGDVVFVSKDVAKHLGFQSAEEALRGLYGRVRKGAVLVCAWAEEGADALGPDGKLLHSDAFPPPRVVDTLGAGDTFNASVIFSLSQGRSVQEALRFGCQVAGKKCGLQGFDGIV
Summary of the method: as §1

HepG2 cells = experiment: F1P Cell-Based Assay (EC50), 13C6-fructose-1-phosphate in HepG2 cells (cell culture medium or 50% human plasma)
[2] = HepG2 cells, 50% human plasma, read-out: F1P 50% HP EC50
[3] = read-out: F1P 10% FBS EC50, HepG2 cells, cell culture medium (10% FBS)
[4] = Homo sapiens, HepG2, HepG2 cells, 50% human plasma, read-out: F1P 50% HP EC50
[5] = Homo sapiens, HepG2, read-out: F1P 10% FBS EC50, HepG2 cells, cell culture medium (10% FBS)

KHK-C expressed in NRK-52E cells, sequence (P50053 whole entry): as above

IC50 (human KHK-C) [nM] | EC50 (HepG2 cells; [4]) [nM] | EC50 (HepG2 cells; [5]) [nM] | IC50 (human KHK-C; ADP-Glo) [nM] | SMILES | also measured
1.1 | 27.5 | 14.9 | – | C[C@H]1[C@H](O)CN1c1nc(-c2ccc3c(c2)OCC[C@@H]3NS(C)(=O)=O)c2c(n1)C(F)(F)CC2 (single isomer, unassigned) [Example 787] | IC50 (human KHK-A): 7 nM
2.5 | 22.5 | 10.7 | – | C[C@H]1[C@@H](F)CN1c1nc(-c2ccc(C3(N)COC3)cc2)c2c(n1)C(F)(F)CC2 (stereo in doubt) [Example 469, 3-(4-(7,7-difluoro-2-((28,38)-3-fluoro-2-methylazetidin-1-yl)-6,7-dihydro-5H-cyclopenta[d]pyrimidin-4-yl)phenyl)oxetan-3-amine] | IC50 (human KHK-A): 6.7 nM
0.2 | 8.3 | 6 | – | C[C@H]1[C@H](O)CN1c1nc(-c2ccc3c(c2)CC[C@]32NC(=O)NC2=O)c2c(n1)C(F)(F)CC2 [Example 486, (S)-5′-(7,7-difluoro-2-((2S,3R)-3-hydroxy-2-methylazetidin-1-yl)-6,7-dihydro-5H-cyclopenta[d]pyrimidin-4-yl)-2′,3′-dihydrospiro[imidazolidine-4,1′-indene]-2,5-dione] | IC50 (human KHK-A): 1.7 nM
1 | 24.7 | 2.4 | – | CS(=O)(=O)N[C@H]1COc2cc(-c3nc(N4CC[C@@H]4C(F)F)nc4c3CCC4(F)F)ccc21 [Example 545, N—((R)-6-(2-((R)-2-(difluoromethyl)azetidin-1-yl)-7,7-difluoro-6,7-dihydro-5H-cyclopenta[d]pyrimidin-4-yl)-2,3-dihydrobenzofuran-3-yl)methanesulfonamide] | IC50 (human KHK-A): 4 nM
6.3 | 130 | 135 | – | NC1(c2ccc(-c3nc(N4CC(F)(F)C4CO)nc4c3CCC4(F)F)cc2)CS(=O)(=O)C1 (stereo not shown) [Example 782, 3-amino-3-(4-(2-(3,3-difluoro-2-(hydroxymethyl)azetidin-1-yl)-7,7-difluoro-6,7-dihydro-5H-cyclopenta[d]pyrimidin-4-yl)phenyl)thietane 1,1-dioxide] | –
0.7 | 23.7 | 15.2 | – | C[C@H]1[C@@H](F)CN1c1nc(-c2ccc(C3(N)CS(=O)(=O)C3)cc2)c2c(n1)C(F)(F)CC2 [Example 785] | –
14.2 | 104 | 29 | – | C[C@H]1CCN1c1nc(-c2cccc(C3(N)CS(=O)(=O)C3)c2)c2c(n1)C(F)(F)CC2 [Example 790, (S)-3-amino-3-(3-(7,7-difluoro-2-(2-methylazetidin-1-yl)-6,7-dihydro-5H-cyclopenta[d]pyrimidin-4-yl)phenyl)thietane 1,1-dioxide] | –
80.5 | > 500 | 316 | – | N#CCC1CCN1c1nc(-c2ccc3c(c2)S(=O)(=O)CCNC3)c2c(n1)C(F)(F)CC2 (stereo not shown) [Example 791, 2-(1-(4-(1,1-dioxido-2,3,4,5-tetrahydrobenzo[f][1,4]thiazepin-8-yl)-7,7-difluoro-6,7-dihydro-5H-cyclopenta[d]pyrimidin-2-yl)azetidin-2-yl)acetonitrile] | –
2.2 | 140 | 57.7 | – | CS(=O)(=O)N[C@H]1COc2cc(-c3nc(N4CC(F)(F)C4CO)nc4c3CCC4(F)F)ccc21 (stereo partly drawn) [Example 792, N-((3R)-6-(2-(3,3-difluoro-2-(hydroxymethyl)azetidin-1-yl)-7,7-difluoro-6,7-dihydro-5H-cyclopenta[d]pyrimidin-4-yl)-2,3-dihydrobenzofuran-3-yl)methanesulfonamide] | –
– | 75.5 | 55.6 | 4.8 | C[C@H]1[C@H](O)CN1c1nc(-c2ccc(C3(N)CCS(=O)(=O)C3)cc2)c2c(n1)C(F)(F)CC2 (stereo partly shown) [Example 793] | –
– | 99.4 | 35.2 | 15.7 | C[C@H]1[C@H](O)CN1c1nc(-c2ccc3c(c2)C(F)(F)CNC3)c2c(n1)C(F)(F)CC2 [Example 807, (2S,3R)-1-[4-(4,4-difluoro-2,3-dihydro-1H-isoquinolin-6-yl)-7,7-difluoro-5,6-dihydrocyclopenta[d]pyrimidin-2-yl]-2-methyl-azetidin-3-ol] | –
– | > 500 | 206 | 34.9 | C[C@H]1[C@H](O)CN1c1nc(-c2ccc3c(c2)CCC3(C)NS(C)(=O)=O)c2c(n1)C(F)(F)CC2 (stereo partly drawn) [Example 810, N-[5-[7,7-difluoro-2-[(2S,3R)-3-hydroxy-2-methyl-azetidin-1-yl]-5,6-dihydrocyclopenta[d]pyrimidin-4-yl]-1-methyl-indan-1-yl]methanesulfonamide] | –
– | 158 | 16.9 | 5.8 | C[C@H]1CCN1c1nc(-c2ccc3c(c2)CCNC3C(F)F)c2c(n1)C(F)(F)CC2 (stereo partly drawn) [Example 836, 6-(7,7-difluoro-2-((S)-2-methylazetidin-1-yl)-6,7-dihydro-5H-cyclopenta[d]pyrimidin-4-yl)-1-(difluoromethyl)-1,2,3,4-tetrahydroisoquinoline] | –

Continued, compound first:

SMILES | IC50 (human KHK-C) [nM] | EC50 (HepG2 cells; [4]) [nM] | EC50 (HepG2 cells; [5]) [nM] | IC50 (human KHK-C; ADP-Glo) [nM] | also measured
C[C@H]1[C@H](CO)CN1c1nc2c(c(-c3ccc(C(N)=O)cc3)n1)CCC2 (racemic) [Example 267, (rac)-4-(2-((2S*,3R*)-3-(hydroxymethyl)-2-methylazetidin-1-yl)-6,7-dihydro-5H-cyclopenta[d]pyrimidin-4-yl)benzamide] | – | – | – | – | EC50 [1]: > 5000 nM
COc1ccc(-c2nc(N3C[C@@H](O)[C@@H]3C)nc3c2CCC3(F)F)cc1[S@@](=N)(=O)C1CC1 (single isomer, unassigned) [Example 539] | 1 | – | – | – | IC50 (human KHK-A): 0.4 nM; EC50 (HepG2 cells; [2]): 8.9 nM; EC50 (HepG2 cells; [3]): 2 nM
C[C@H]1[C@H](F)CN1c1nc(-c2ccc([C@H](N)CS(C)(=O)=O)cc2)c2c(n1)C(F)(F)CC2 (single isomer, unassigned) [Example 788] | 2.5 | – | – | – | IC50 (human KHK-A): 6 nM; EC50 (HepG2 cells; [2]): 76.5 nM; EC50 (HepG2 cells; [3]): 18.6 nM
C[C@H]1[C@H](O)CN1c1nc(-c2cc(F)c3c(c2)OC[C@@H]3NS(C)(=O)=O)c2c(n1)C(F)(F)CC2 (single isomer, unassigned) [Example 813] | – | 78.4 | 25.2 | 2.5 | IC50 (human KHK-A; ADP-Glo): 34.7 nM
C[C@H]1[C@H](F)CN1c1nc2c(c(-c3ccc4c(c3)C(=O)N(C)C4)n1)CCC2 [Example 203, 6-[2-[(2S,3R)-3-fluoro-2-methyl-azetidin-1-yl]-6,7-dihydro-5H-cyclopenta[d]pyrimidin-4-yl]-2-methyl-isoindolin-1-one] | – | – | – | – | EC50 [1]: 59.5 nM
C[C@H]1CCN1c1nc2c(c(-c3ccc4c(c3)C(=O)N(C)C4)n1)CCC2 [Example 206, 2-methyl-6-[2-[(2S)-2-methylazetidin-1-yl]-6,7-dihydro-5H-cyclopenta[d]pyrimidin-4-yl]isoindolin-1-one] | – | – | – | – | EC50 [1]: 26.6 nM
C[C@H]1CCN1c1nc(-c2cccc(C(N)=O)c2)c2c(n1)C1CC1C2 (stereo partly drawn) [Example 272, 3-(2-((S)-2-methylazetidin-1-yl)-5,5a,6,6a-tetrahydrocyclopropa[4,5]cyclopenta[1,2-d]pyrimidin-4-yl)benzamide] | – | – | – | – | EC50 [1]: 635 nM
C[C@H]1CCN1c1nc2c(c(-c3ccc(C4(NS(C)(=O)=O)CC4)cc3)n1)CCC2 [Example 306, (S)—N-(1-(4-(2-(2-methylazetidin-1-yl)-6,7-dihydro-5H-cyclopenta[d]pyrimidin-4-yl)phenyl)cyclopropyl)methanesulfonamide] | – | – | – | – | EC50 [1]: 450 nM
C[C@H]1[C@H](O)CN1c1nc(-c2cc(F)c3c(c2)CCC3NS(C)(=O)=O)c2c(n1)C(F)(F)CC2 (stereo partly drawn) [Example 525, N-(5-(7,7-difluoro-2-((2S,3R)-3-hydroxy-2-methylazetidin-1-yl)-6,7-dihydro-5H-cyclopenta[d]pyrimidin-4-yl)-7-fluoro-2,3-dihydro-1H-inden-1-yl)methanesulfonamide] | 1.8 | 86.6 | 32.5 | – | IC50 (human KHK-A): 29.8 nM
C[C@H]1[C@H](O)CN1c1nc([C@H]2CC(NS(C)(=O)=O)c3ccccc3O2)c2c(n1)C(F)(F)CC2 (stereo partly drawn) [Example 786, N—((R)-(7,7-difluoro-2-((2S,3R)-3-hydroxy-2-methylazetidin-1-yl)-6,7-dihydro-5H-cyclopenta[d]pyrimidin-4-yl)chroman-4-yl)methanesulfonamide] | 6.1 | – | – | – | EC50 (HepG2 cells; [2]): 97.6 nM; EC50 (HepG2 cells; [3]): 58 nM
CC(=O)NC1COc2cc(-c3nc(N4C[C@@H](O)[C@@H]4C)nc4c3CCC4(F)F)cc(F)c21 (stereo partly shown) [Example 809] | – | 179 | 110 | 24.8 | –
COC(=O)NC1COc2cc(-c3nc(N4C[C@@H](O)[C@@H]4C)nc4c3CCC4(F)F)cc(F)c21 (stereo partly drawn) [Example 811, methyl (6-(7,7-difluoro-2-((2S,3R)-3-hydroxy-2-methylazetidin-1-yl)-6,7-dihydro-5H-cyclopenta[d]pyrimidin-4-yl)-4-fluoro-2,3-dihydrobenzofuran-3-yl)carbamate] | – | 343 | 127 | 5.2 | –
C[C@H]1[C@H](O)CN1c1nc(-c2cc(F)c3c(c2)OCC3NS(C)(=O)=O)c2c(n1)C(F)(F)CC2 (stereo partly drawn) [Example 817, N-(6-(7,7-difluoro-2-((2S,3R)-3-hydroxy-2-methylazetidin-1-yl)-6,7-dihydro-5H-cyclopenta[d]pyrimidin-4-yl)-4-fluoro-2,3-dihydrobenzofuran-3-yl)methanesulfonamide] | – | 67.1 | 39.7 | 5.9 | –
